# Organism: Rattus norvegicus
# Assay: DrugMatrix - Regimen: Daily Repeat
# Format: toxicity, organism-based, Sprague-Dawley
# Set-up: regimen Daily Repeat, gender Male, age 6-8 weeks
# Details: in vivo, po, route oral GAVAGE, vehicle 100 % SALINE; for ABSOLUTE BASOPHIL / ABSOLUTE EOSINOPHIL / ABSOLUTE LYMPHOCYTE / ABSOLUTE MONOCYTE / ABSOLUTE SEGMENTED NEUTROPHIL / BASOPHIL / EOSINOPHIL / ERYTHROCYTE COUNT / HEMATOCRIT / HEMOGLOBIN / LEUKOCYTE COUNT / LYMPHOCYTE / MEAN CORPUSCULAR HEMOGLOBIN / MEAN CORPUSCULAR HEMOGLOBIN CONCENTRATION / MEAN CORPUSCULAR VOLUME / MONOCYTE / NEUTROPHIL / NUCLEATED RED BLOOD CELLS / PLATELET COUNT: tissue Blood; for ALANINE AMINOTRANSFERASE / ALBUMIN / ALKALINE PHOSPHATASE / ASPARTATE AMINOTRANSFERASE / BLOOD UREA NITROGEN / CARBON DIOXIDE / CHLORIDE / CHOLESTEROL / CREATINE PHOSPHOKINASE / CREATININE / GLUCOSE / LACTATE DEHYDROGENASE / LIPASE / PHOSPHORUS / POTASSIUM / SODIUM / TOTAL BILIRUBIN / TOTAL PROTEIN / URIC ACID: tissue Plasma
# [1] = 0 mg/kg, 72 h, dose level Control, time 3 day
# [2] = 0 mg/kg, 120 h, dose level Control, time 5 day
# [3] = 34 mg/kg, 72 h, dose level High, time 3 day
# [4] = 34 mg/kg, 120 h, dose level High, time 5 day
compound,measurement,setting,value
CCN(CC)N=O [N-NITROSODIETHYLAMINE],ABSOLUTE BASOPHIL,[1],0 CELLS/uL
same,ABSOLUTE EOSINOPHIL,[1],0 CELLS/uL
same,ABSOLUTE LYMPHOCYTE,[1],8960.83 CELLS/uL
same,ABSOLUTE MONOCYTE,[1],103.5 CELLS/uL
same,ABSOLUTE SEGMENTED NEUTROPHIL,[1],635.67 CELLS/uL
same,BASOPHIL,[1],0%
same,EOSINOPHIL,[1],0%
same,ERYTHROCYTE COUNT,[1],5.09 x10E6/uL
same,HEMATOCRIT,[1],31.8%
same,HEMOGLOBIN,[1],12.42 G/DL
same,LEUKOCYTE COUNT,[1],9.7 x10E3/uL
same,LYMPHOCYTE,[1],92.33%
same,MEAN CORPUSCULAR HEMOGLOBIN,[1],24.4 pg
same,MEAN CORPUSCULAR HEMOGLOBIN CONCENTRATION,[1],39.07 G/DL
same,MEAN CORPUSCULAR VOLUME,[1],62.47 fL
same,MONOCYTE,[1],1%
same,NEUTROPHIL,[1],6.67%
same,NUCLEATED RED BLOOD CELLS,[1],0 /100WBC
same,PLATELET COUNT,[1],466.5 x10E3/uL
same,ALANINE AMINOTRANSFERASE,[1],83.33 u/L
same,ALBUMIN,[1],4.33 G/DL
same,ALKALINE PHOSPHATASE,[1],340.5 u/L
same,ASPARTATE AMINOTRANSFERASE,[1],189.83 u/L
same,BLOOD UREA NITROGEN,[1],15.83 mg/dL
same,CARBON DIOXIDE,[1],38 mmol/L
same,CHLORIDE,[1],96.83 MEQ/L
same,CHOLESTEROL,[1],72.5 mg/dL
same,CREATINE PHOSPHOKINASE,[1],370.67 u/L
same,CREATININE,[1],0.28 mg/dL
same,GLUCOSE,[1],182.83 mg/dL
same,LACTATE DEHYDROGENASE,[1],513.5 u/L
same,LIPASE,[1],9.83 u/L
same,PHOSPHORUS,[1],11.32 mg/dL
same,POTASSIUM,[1],6.32 MEQ/L
same,SODIUM,[1],145.12 MEQ/L
same,TOTAL BILIRUBIN,[1],0.2 mg/dL
same,TOTAL PROTEIN,[1],6.4 G/DL
same,URIC ACID,[1],2.03 mg/dL
same,ABSOLUTE BASOPHIL,[2],0 CELLS/uL
same,ABSOLUTE EOSINOPHIL,[2],43.83 CELLS/uL
same,ABSOLUTE LYMPHOCYTE,[2],7316.67 CELLS/uL
same,ABSOLUTE MONOCYTE,[2],87.33 CELLS/uL
same,ABSOLUTE SEGMENTED NEUTROPHIL,[2],418.83 CELLS/uL
same,BASOPHIL,[2],0%
same,EOSINOPHIL,[2],0.33%
same,ERYTHROCYTE COUNT,[2],4.77 x10E6/uL
same,HEMATOCRIT,[2],29.93%
same,HEMOGLOBIN,[2],11.48 G/DL
same,LEUKOCYTE COUNT,[2],7.87 x10E3/uL
same,LYMPHOCYTE,[2],93.5%
same,MEAN CORPUSCULAR HEMOGLOBIN,[2],24.17 pg
same,MEAN CORPUSCULAR HEMOGLOBIN CONCENTRATION,[2],38.57 G/DL
same,MEAN CORPUSCULAR VOLUME,[2],62.68 fL
same,MONOCYTE,[2],1%
same,NEUTROPHIL,[2],5.17%
same,NUCLEATED RED BLOOD CELLS,[2],0 /100WBC
same,PLATELET COUNT,[2],377.67 x10E3/uL
same,ALANINE AMINOTRANSFERASE,[2],89 u/L
same,ALBUMIN,[2],4.42 G/DL
same,ALKALINE PHOSPHATASE,[2],275.17 u/L
same,ASPARTATE AMINOTRANSFERASE,[2],204.17 u/L
same,BLOOD UREA NITROGEN,[2],15.33 mg/dL
same,CARBON DIOXIDE,[2],36.83 mmol/L
same,CHLORIDE,[2],94.67 MEQ/L
same,CHOLESTEROL,[2],92 mg/dL
same,CREATINE PHOSPHOKINASE,[2],514.5 u/L
same,CREATININE,[2],0.24 mg/dL
same,GLUCOSE,[2],184.17 mg/dL
same,LACTATE DEHYDROGENASE,[2],648.67 u/L
same,LIPASE,[2],10 u/L
same,PHOSPHORUS,[2],12.33 mg/dL
same,POTASSIUM,[2],6.51 MEQ/L
same,SODIUM,[2],144.63 MEQ/L
same,TOTAL BILIRUBIN,[2],0.18 mg/dL
same,TOTAL PROTEIN,[2],6.7 G/DL
same,URIC ACID,[2],2.33 mg/dL
same,ABSOLUTE BASOPHIL,[3],0 CELLS/uL
same,ABSOLUTE EOSINOPHIL,[3],38.67 CELLS/uL
same,ABSOLUTE LYMPHOCYTE,[3],8206.67 CELLS/uL
same,ABSOLUTE MONOCYTE,[3],88.33 CELLS/uL
same,ABSOLUTE SEGMENTED NEUTROPHIL,[3],499.67 CELLS/uL
same,BASOPHIL,[3],0%
same,EOSINOPHIL,[3],0.33%
same,ERYTHROCYTE COUNT,[3],6.73 x10E6/uL
same,HEMATOCRIT,[3],41.13%
same,HEMOGLOBIN,[3],15.77 G/DL
same,LEUKOCYTE COUNT,[3],8.83 x10E3/uL
same,LYMPHOCYTE,[3],93.33%
same,MEAN CORPUSCULAR HEMOGLOBIN,[3],23.47 pg
same,MEAN CORPUSCULAR HEMOGLOBIN CONCENTRATION,[3],38.37 G/DL
same,MEAN CORPUSCULAR VOLUME,[3],61.23 fL
same,MONOCYTE,[3],1%
same,NEUTROPHIL,[3],5.33%
same,NUCLEATED RED BLOOD CELLS,[3],0 /100WBC
same,PLATELET COUNT,[3],912.67 x10E3/uL
same,ALANINE AMINOTRANSFERASE,[3],112.33 u/L
same,ALBUMIN,[3],4.2 G/DL
same,ALKALINE PHOSPHATASE,[3],292.67 u/L
same,ASPARTATE AMINOTRANSFERASE,[3],218.67 u/L
same,BLOOD UREA NITROGEN,[3],13 mg/dL
same,CARBON DIOXIDE,[3],38.67 mmol/L
same,CHLORIDE,[3],96.33 MEQ/L
same,CHOLESTEROL,[3],79.33 mg/dL
same,CREATINE PHOSPHOKINASE,[3],309.67 u/L
same,CREATININE,[3],0.53 mg/dL
same,GLUCOSE,[3],161.33 mg/dL
same,LACTATE DEHYDROGENASE,[3],311 u/L
same,LIPASE,[3],9.67 u/L
same,PHOSPHORUS,[3],11.2 mg/dL
same,POTASSIUM,[3],6.34 MEQ/L
same,SODIUM,[3],146.93 MEQ/L
same,TOTAL BILIRUBIN,[3],0.2 mg/dL
same,TOTAL PROTEIN,[3],6.03 G/DL
same,URIC ACID,[3],2.2 mg/dL
same,ABSOLUTE BASOPHIL,[4],0 CELLS/uL
same,ABSOLUTE EOSINOPHIL,[4],0 CELLS/uL
same,ABSOLUTE LYMPHOCYTE,[4],7416.33 CELLS/uL
same,ABSOLUTE MONOCYTE,[4],148.33 CELLS/uL
same,ABSOLUTE SEGMENTED NEUTROPHIL,[4],435.33 CELLS/uL
same,BASOPHIL,[4],0%
same,EOSINOPHIL,[4],0%
same,ERYTHROCYTE COUNT,[4],6.58 x10E6/uL
same,HEMATOCRIT,[4],41.63%
same,HEMOGLOBIN,[4],15.6 G/DL
same,LEUKOCYTE COUNT,[4],8 x10E3/uL
same,LYMPHOCYTE,[4],94%
same,MEAN CORPUSCULAR HEMOGLOBIN,[4],23.7 pg
same,MEAN CORPUSCULAR HEMOGLOBIN CONCENTRATION,[4],37.47 G/DL
same,MEAN CORPUSCULAR VOLUME,[4],63.27 fL
same,MONOCYTE,[4],1.67%
same,NEUTROPHIL,[4],4.33%
same,NUCLEATED RED BLOOD CELLS,[4],0 /100WBC
same,PLATELET COUNT,[4],607 x10E3/uL
same,ALANINE AMINOTRANSFERASE,[4],90.67 u/L
same,ALBUMIN,[4],3.93 G/DL
same,ALKALINE PHOSPHATASE,[4],310.33 u/L
same,ASPARTATE AMINOTRANSFERASE,[4],148 u/L
same,BLOOD UREA NITROGEN,[4],13 mg/dL
same,CARBON DIOXIDE,[4],37 mmol/L
same,CHLORIDE,[4],95.67 MEQ/L
same,CHOLESTEROL,[4],85.67 mg/dL
same,CREATINE PHOSPHOKINASE,[4],246 u/L
same,CREATININE,[4],0.16 mg/dL
same,GLUCOSE,[4],139.33 mg/dL
same,LACTATE DEHYDROGENASE,[4],200 u/L
same,LIPASE,[4],13 u/L
same,PHOSPHORUS,[4],11.33 mg/dL
same,POTASSIUM,[4],6.73 MEQ/L
same,SODIUM,[4],144.83 MEQ/L
same,TOTAL BILIRUBIN,[4],0.23 mg/dL
same,TOTAL PROTEIN,[4],5.43 G/DL
same,URIC ACID,[4],1.9 mg/dL
